Test results from patent publication US7820833B2, “Dithio compounds” (Marquette University, priority 2005, dated 2010).

Experiment: FRET-based detection of thiols with coumarin-DAP-FITC
Details: 5 μM probe, Hepes pH 7.0; excitation 300 to 330 nm; no DTT
Procedure: FIG. 18. FRET-based detection of thiols: (a) R^1—S—S—R^2 probe with FRET capability (coumarin-DAP-FITC); (b) Fluorescence emission of coumarin-DAP-FITC at different excitation wavelengths; (c) Fluorescence emission of coumarin DAP-FITC after treatment with 1 mM DTT reductant (5 min) at different excitation wavelengths.
Hepes (pH 7.0) buffer was used in this study (FIG. 18) and fluorescence readings were made on a BMG Polarstar Galaxy fluorescence plate reader and/or on a Jasco FP-6500 spectrofluorometer. […] The probe (5 μM) was transferred to a 4 mL fluorescence cell and a three dimensional fluorescence spectra was recorded with excitation wavelength from 300 nm to 400 nm and emission wavelength from 400 nm to 600 nm. The coumarin chromophone has maximum excitation wavelength in the range of 310 to 325 nm and emits in the range of 400 nm to 425 nm. […] Analogues of this coumarin-DAP-FITC FRET pair can be used to tune excitation wavelengths in the range of 280 to 400 nm by placing different substitutions on the coumarin core. This includes using commercially available coumarin compounds and also coumarin compounds synthesized with functional groups like NO2, CN, NH2, COOH, CHO, alkyl, benzyl, pyridyl, naphthyl, indoles, etc at any of the synthetically feasible positions on benzyl ring of coumarin or lactone ring of coumarin. […]

Cc1cc(=O)oc2cc(SSc3ccc(C(=S)Nc4ccc(C(=O)O)c(-c5c6ccc(=O)cc-6oc6cc(O)ccc56)c4)cc3)ccc12 [coumarin-DAP-FITC, 2-(6-Hydroxy-3-oxo-3H-xanthen-9-yl)-4-[4-(4-methyl-2-oxo-2H-chromen-7-yldisulfanyl)-thiobenzoylamino]-benzoic acid]
fluorescence emission of intact probe: emission is only from FITC at 520 nm
